Values quoted from earlier work as cited in patent US11376263B2, “Cyproterone acetate compositions and uses thereof” (FORTRESS BIOTECH, INC., priority 2020, dated 2022).

What was measured:
[1] = daily administration

Row | time to CPA steady state [1] | AUC and Cmax in obese women versus normal weight women (obese vs normal weight women) | mean oral bioavailability (oral, large inter- and intraindividual variability) | SMILES
1 | approximately 16 days | – | – | CC(=O)O[C@]1(C(C)=O)CC[C@H]2[C@@H]3C=C(Cl)C4=CC(=O)[C@@H]5C[C@@H]5[C@]4(C)[C@H]3CC[C@@]21C [CPA, cyproterone acetate]
2 | – | lower | approximately 45% | C#C[C@]1(O)CC[C@H]2[C@@H]3CCc4cc(O)ccc4[C@H]3CC[C@@]21C [EE, ethinylestradiol]
